Experiments:
[1] = test system: human multiple myeloma NCI-H929 cells; test: Antitumor effect in a mouse model transplanted with human multiple myeloma NCI-H929 cells (combination with bortezomib); type: in vivo, Fox C.B-17/Icr-scidJcl mice; settings: day 14; test compound 50 mg/kg i.v. and bortezomib 1 mg/kg i.v., once a day on days 0, 3, 7 and 10
[2] = test system: human multiple myeloma cell line (NCI-H929); test: In vitro cell growth inhibition assay (WST-1) with isobologram analysis of combination effect; type: cell-based; settings: combined with the test compound (hydrochloride of Compound 22), 72 hours, isobologram method
Experimental: (§1) Measurement of the cell growth inhibition rate of the test compound and a combined compound on a human multiple myeloma cell line (NCI-H929), a human non-small-cell lung cancer cell line (PC-9), a human breast cancer cell line (BT-474), a human renal cancer cell line (VMRC-RCZ), a human chronic myeloid leukemia cell line (K-562) and a human acute myeloid leukemia cell line (MOLM-13) was carried out in the following manner.
(§2) For the culture of NCI-H929, Roswell Park Memorial Institute's Medium (RPMI) 1640 medium (Invitrogen) containing 10% fetal calf serum (FCS, Invitrogen), 10 mmol/L HEPES (Invitrogen), 1 mmol/L sodium pyruvate (Invitrogen), 4.5 g/L glucose (Sigma-Aldrich) and 50 μmol/L 2-mercaptoethanol (Invitrogen) was used. For the culture of PC-9, RPMI1640 medium containing 10% FCS was used. For the culture of BT-474, Dulbecco's Modified Eagle Medium (DMEM) (Invitrogen) containing 10% FCS, 1 mmol/L sodium pyruvate, 1.2 mmol/L oxalacetic acid (Sigma-Aldrich), 0.01 mg/mL insulin (Sigma-Aldrich), 10% NCTC-135 medium (Sigma-Aldrich), 4 mmol/L L-glutamine (Invitrogen), 1.5 g/L sodium hydrogencarbonate (Invitrogen) and 4.5 g/L glucose was used.
(§3) NCI-H929 cells were suspended to 12.5×10^4 cells/mL with culture medium (PC-9, 0.625×10^4 cells/mL; BT-474, 12.5×10^4 cells/mL; VMRC-RCZ, 2.5×10^4 cells/mL; MOLM-13, 12.5×10^4 cells/mL; K-562, 6.25×10^4 cells/mL), and the cell suspensions were seeded to the wells of 96-well U-bottom plates (Nalge Nunc International) in an amount of 80 μL/well, followed by incubation in a 5% CO2 incubator at 37° C. for 5 hours (PC-9, BT-474 and VMRC-RCZ, 24 hours; MOLM-13 and K-562, 4 hours).
(§4) The solutions of the test compound and the combined compound diluted with culture medium were added to the plates in an amount of 10 μL/well, respectively, followed by further incubation in a 5% CO2 incubator at 37° C. for 72 hours. WST-1 reagent {4-[3-(4-iodophenyl)-2-(4-nitrophenyl)-2H-5-tetrazolio]-1,3-benzene disulfonate sodium salt} (Roche Diagnostics) was added to the wells in an amount of 10 μL/well and the plates were incubated in a CO2 incubator for 2 hours at 37° C. The absorbance at 450 nm (control wavelength: 655 nm) was measured using a microplate spectrophotometer SPECTRA max 340PC (Molecular Devices). Separately, the solvent used for preparation of each compound solution alone was added to the wells, and the absorbance was measured in the same manner as above after 72-hour incubation carried out in the same manner as above and also immediately after the addition of the solvent. The cell growth inhibition rate on the cells in the compound-added groups (groups treated with the test compound alone, the combined compound alone, or both compounds) was calculated according to the following equation.
(§5) The combined effect was analyzed using the isobologram method [International Journal of Radiation Oncology, Biology, Physics, Vol. 5, p. 85 (1979)]. Judgment of the efficacy of combination therapy was carried out according to the method described in International Journal of Radiation Oncology, Biology, Physics, Vol. 5, p. 85 (1979), Ibid., Vol. 5, p. 1145 (1979), etc.

[3] = test system: human acute myeloid leukemia cell line (MOLM-13); test: as above; type: cell-based; settings: combined with the test compound (hydrochloride of Compound 22), 72 hours, isobologram method
Experimental: as §1
(§6) For the culture of VMRC-RCZ, Minimum Essential Medium (MEM) (Invitrogen) containing 10% FCS, 0.1 mmol/L Non-Essential Amino Acids (NEAA, Invitrogen), 4 mmol/L HEPES, 2 mmol/L L-glutamine and 1.5 g/L sodium hydrogencarbonate was used. For the culture of K-562, Iscove's Modified Dulbecco's Medium (IMDM) (Invitrogen) containing 10% FCS was used. For the culture of MOLM-13, RPMI1640 medium containing 10% FCS was used.
as §3, with “hours). […]” for “hours).”

[4] = test system: human non-small-cell lung cancer cell line (PC-9); test: as above; type: cell-based; settings: combined with the test compound (hydrochloride of Compound 22), 72 hours, isobologram method
Experimental: as §1, §2, §3, §4, §5

[5] = test system: human lung cancer NCI-H596 cells; test: Antitumor effect in a mouse model transplanted with human lung cancer NCI-H596 cells; type: in vivo, BALB/cAJcl-nu mice; settings: day 11; test compound 100 mg/kg i.v. twice a day x 5 days; gefitinib 100 mg/kg oral once a day x 5 days
Experimental: NCI-H596 cells were cultured in RPMI1640 medium containing 10% fetal calf serum (FCS) in a 5% CO2 incubator at 37° C. and then transplanted into the abdominal subcutaneous tissue of BALB/cAJcl-nu mice (Clea Japan, Inc.) in an amount of 1×10^7 cells/mouse. From the mice in which tumor grew, the tumor was excised and the tumor tissue was cut into ca. 8 mm^3 tissue pieces and then transplanted into the abdominal subcutaneous tissue of BALB/cAJcl-nu mice (Clea Japan, Inc.) using a trocar. Seventeen days after the transplantation, the longer diameter and shorter diameter of the subcutaneous tumor were measured with slide calipers, and the tumor volume was calculated according to the following equation.
(§7) At the same time, the body weight of each mouse was measured, and the mice were divided into the following groups of 5 mice each so that the mean tumor volume and the mean body weight become uniform. The day was defined as day 0 of the administration test, and administration was started.
(§8) The test compound was dissolved in physiological saline (Otsuka Pharmaceutical Co., Ltd.) at a concentration of 10 mg/mL and intravenously administered from the caudal vein in a dose of 0.01 mL/g body weight of mouse (100 mg/kg) twice a day for consecutive days from day 0 to day 4. […]

[6] = test system: human chronic myeloid leukemia cell line (K-562); test: In vitro cell growth inhibition assay (WST-1) with isobologram analysis of combination effect; type: cell-based; settings: combined with the test compound (hydrochloride of Compound 22), 72 hours, isobologram method
Experimental: as §1, §6
as §3, with “hours). […]” for “hours).”

[7] = test system: human breast cancer cell line (BT-474); test: as above; type: cell-based; settings: combined with the test compound (hydrochloride of Compound 22), 72 hours, isobologram method
Experimental: as §1, §3
The solutions of the test compound and the combined compound diluted with culture medium were added to the plates in an amount of 10 μL/well, respectively, followed by further incubation in a 5% CO2 incubator at 37° C. for 72 hours. WST-1 reagent {4-[3-(4-iodophenyl)-2-(4-nitrophenyl)-2H-5-tetrazolio]-1,3-benzene disulfonate sodium salt} (Roche Diagnostics) was added to the wells in an amount of 10 μL/well and the plates were incubated in a CO2 incubator for 2 hours at 37° C.

[8] = test system: human multiple myeloma NCI-H929 cells; test: Antitumor effect in a mouse model transplanted with human multiple myeloma NCI-H929 cells (combination with melphalan); type: in vivo, Fox C.B-17/Icr-scidJcl mice; settings: day 14; test compound 50 mg/kg i.v. on days 0, 3, 7 and 10; melphalan 4 mg/kg i.v. on day 0
Experimental: On the day before the transplantation of cancer cells, 0.3 mg/mouse of an anti-asialo GM1 antibody (ca. 10 mg protein/1 mL vial) (Wako Pure Chemical Industries, Ltd.) was intraperitoneally administered to Fox C.B-17/Icr-scidJcl mice (Clea Japan, Inc.). NCI-H929 cells were cultured in RPMI1640 medium containing 10% fetal calf serum (FCS) in a 5% CO2 incubator at 37° C. and then transplanted into the abdominal subcutaneous tissue of the mice in an amount of 1×10^7 cells/mouse.
The day was defined as day 0 of the administration test, and administration was started.
The test compound was dissolved in physiological saline (Otsuka Pharmaceutical Co., Ltd.) at a concentration of 5 mg/mL and intravenously administered from the caudal vein in a dose of 0.01 mL/g body weight of mouse (50 mg/kg) once a day on days 0, 3, 7 and 10.
Melphalan was suspended in physiological saline (Otsuka Pharmaceutical Co., Ltd.) at a concentration of 0.4 mg/mL and intravenously administered from the caudal vein in a dose of 0.01 mL/g body weight of mouse (4 mg/kg) once a day on day 0. • A. Negative control group (Control): neither test compound nor melphalan administered • B. Test compound alone group: 50 mg/kg (once a day/administered on days 0, 3, 7 and 10) • C. […]
On and after day 0, the tumor volume was measured twice a week. […]

[9] = test system: human breast cancer KPL-4 cells; test: Antitumor effect in a mouse model transplanted with human breast cancer KPL-4 cells; type: in vivo, BALB/cAJcl-nu mice; settings: day 10; test compound 100 mg/kg i.v. twice a day x 5 days; paclitaxel 25 mg/kg i.v. days 0 and 3; trastuzumab 50 mg/kg i.v. days 0, 3, 7, 10, 14 and 17
Experimental: KPL-4 cells were cultured in DMEM containing 10% fetal calf serum (FCS) in a 5% CO2 incubator at 37° C. and then transplanted into the abdominal subcutaneous tissue of BALB/cAJcl-nu mice (Clea Japan, Inc.) in an amount of 1×10^7 cells/mouse. From the mice in which tumor grew, the tumor was excised and the tumor tissue was cut into ca. 8 mm^3 tissue pieces and then transplanted into the abdominal subcutaneous tissue of BALB/cAJcl-nu mice (Clea Japan, Inc.) using a trocar. Eighteen days after the transplantation, the longer diameter and shorter diameter of the subcutaneous tumor were measured with slide calipers, and the tumor volume was calculated according to the following equation.
as §7, §8

[10] = test system: human renal cancer cell line (VMRC-RCZ); test: In vitro cell growth inhibition assay (WST-1) with isobologram analysis of combination effect; type: cell-based; settings: combined with the test compound (hydrochloride of Compound 22), 72 hours, isobologram method
Experimental: as §1
For the culture of VMRC-RCZ, Minimum Essential Medium (MEM) (Invitrogen) containing 10% FCS, 0.1 mmol/L Non-Essential Amino Acids (NEAA, Invitrogen), 4 mmol/L HEPES, 2 mmol/L L-glutamine and 1.5 g/L sodium hydrogencarbonate was used. […]
The solutions of the test compound and the combined compound diluted with culture medium were added to the plates in an amount of 10 μL/well, respectively, followed by further incubation in a 5% CO2 incubator at 37° C. for 72 hours. […] The absorbance at 450 nm (control wavelength: 655 nm) was measured using a microplate spectrophotometer SPECTRA max 340PC (Molecular Devices). Separately, the solvent used for preparation of each compound solution alone was added to the wells, and the absorbance was measured in the same manner as above after 72-hour incubation carried out in the same manner as above and also immediately after the addition of the solvent. […]

SMILES	Combination effect of test compound and each compound [2]	Combination effect of test compound and each compound [4]	also measured
CC(C)C[C@H](NC(=O)[C@H](Cc1ccccc1)NC(=O)c1cnccn1)B(O)O [Bortezomib, bortezomib]	Envelope of additivity		T/C (V/V0 of each group divided by V/V0 of the negative control group) [1]: 0.45
Nc1ccn([C@@H]2O[C@H](CO)[C@@H](O)[C@@H]2O)c(=O)n1 [Cytarabine, cytarabine]			Combination effect of test compound and each compound [3]: Envelope of additivity
CC(=O)O[C@@]12CO[C@@H]1C[C@H](O)[C@@]1(C)C(=O)[C@H](O)C3=C(C)[C@@H](OC(=O)[C@H](O)[C@@H](NC(=O)OC(C)(C)C)c4ccccc4)C[C@@](O)([C@@H](OC(=O)c4ccccc4)[C@H]21)C3(C)C [Docetaxel, docetaxel]		Envelope of additivity	
C#Cc1cccc(Nc2ncnc3cc(OCCOC)c(OCCOC)cc23)c1 [Erlotinib, erlotinib]		Sub-additive	
COc1cc2ncnc(Nc3ccc(F)c(Cl)c3)c2cc1OCCCN1CCOCC1 [Gefitinib, gefitinib]		Envelope of additivity	T/C (V/V0 of each group divided by V/V0 of the negative control group) [5]: 0.74
Cc1ccc(NC(=O)c2ccc(CN3CCN(C)CC3)cc2)cc1Nc1nccc(-c2cccnc2)n1 [Imatinib, imatinib]			Combination effect of test compound and each compound [6]: Sub-additive
CS(=O)(=O)CCNCc1ccc(-c2ccc3ncnc(Nc4ccc(OCc5cccc(F)c5)c(Cl)c4)c3c2)o1 [Lapatinib, lapatinib]			Combination effect of test compound and each compound [7]: Envelope of additivity
Nc1cccc2c1CN(C1CCC(=O)NC1=O)C2=O (stereo not shown) [Lenalidomide, lenalidomide]	Envelope of additivity		
N[C@@H](Cc1ccc(N(CCCl)CCCl)cc1)C(=O)O [Melphalan, melphalan]	Envelope of additivity		T/C (V/V0 of each group divided by V/V0 of the negative control group) [8]: 0.63
CC(=O)O[C@H]1C(=O)[C@@]2(C)[C@H]([C@H](OC(=O)c3ccccc3)[C@]3(O)C[C@H](OC(=O)[C@H](O)[C@@H](NC(=O)c4ccccc4)c4ccccc4)C(C)=C1C3(C)C)[C@]1(OC(C)=O)CO[C@@H]1C[C@@H]2O [Paclitaxel, paclitaxel]		Envelope of additivity	T/C (V/V0 of each group divided by V/V0 of the negative control group) [9]: 0.094
CNC(=O)c1cc(Oc2ccc(NC(=O)Nc3ccc(Cl)c(C(F)(F)F)c3)cc2)ccn1 [Sorafenib, sorafenib]			Combination effect of test compound and each compound [10]: Supra-additive
O=C(CCCCCCC(=O)Nc1ccccc1)NO [Vorinostat, vorinostat]	Sub-additive		
